Results published in patent US7045343B2, “Sterilization indicator test packs” (3M Innovative Properties Company, priority 1998, dated 2006).

Test system: enzyme associated with Bacillus stearothermophilus spores
Experiment: Rapid enzyme fluorescence readout of dual rapid readout indicators after prevacuum steam sterilization
Format: biochemical
Conditions: 4-pulse prevacuum steam 121° C.
Procedure: (§1) The indicators prepared for the Examples were dual rapid readout indicators that provided both a rapid, enzyme-based efficacy test and a confirmatory spore outgrowth test. Spores coated on the carrier strip 16 served as the source of active enzyme whose activity was measured by the rapid enzyme test. These same spores were then incubated in the spore outgrowth portion of the test.
(§2) Bacillus stearothermophilus, commercially available as ATCC 7953 from American Type Culture Collection, Rockville, Md., was grown overnight (16 hours) at 58° C. in tryptic soy broth. This culture was used to inoculate the surface of agar plates consisting of 8 g/l nutrient broth, 4 g/l yeast extract, 0.1 g/l manganese chloride and 20 g/l agar at pH 7.2. Plates were incubated at 58° C. for 72 hours. Spores were scraped from the plates and suspended in sterile distilled water. The spores were separated from the vegetative debris by centrifuging the suspension at 7000 rpm and 4° C. for 20 minutes. The supernatant was poured off and the spores were resuspended in sterile distilled water. The cleaning procedure was repeated several times. After the final wash, the spores were suspended in sterile distilled water, at a concentration of approximately 1×10^8 spores per milliliter.
(§3) The spores were then treated with the chemicals identified in Tables 1–5. All chemicals tested were obtained from commercial sources. The spores were centrifuged at 6000 rpm for 10 minutes. The supernatant and coating chemical mixtures were heated at 60–80° C. for several minutes and vortexed to get the material into solution. The spores were then mixed into the sterilant-resistant chemical solution. The sterilant-resistant chemical solution was applied to 5×25 mm, 591 A paper strips (Schleicher & Schuell, Inc., Keene, N.H.) by pipetting 10–15 microliters to each strip for a final population of about 1×10^6 spores per strip. The strips were dried 16 hours at 37° C.
(§4) The treated spore strips were placed on the bottom of the outer container 12 of the indicator 10 and a barrier was inserted between the spore strip 16 and the inner container 18, which contained enzyme substrate. A […] ( 11/16 inch) disc of polypropylene blown microfiber material, with a weight of 200 g/m^2, commercially available as “THINSULATE™ 200-B brand Thermal Insulation” from 3M Company, St. Paul, Minn., was used as the barrier. The inner container 18 contained 0.67 ml nutrient medium, consisting of 17 g of a bacteriological peptone and a 0.17 g/l of L-alanine, as well as 0.1 g 4-methylumbelliferyl-alpha-D-glucoside, commercially available from Sigma Chemical Company, St. Louis, Mo., dissolved in 200 microliters of N,N-dimethylformamide, and 0.03 g bromocresol purple pH indicator dye, per liter of water. The pH of the enzyme substrate and nutrient medium solution was adjusted to 7.6 with 0.1N sodium hydroxide.
(§5) Sterilization indicators were made as described above with each of the chemicals and concentrations described in Table 1. Control indicators were made using untreated spores. The indicators were placed in metal instrument trays and exposed at 121° C. in a Getinge Steam Sterilizer (Getinge International, Inc., 1100 Towbin Ave., Lakewood, N.J.) using a 4-pulse prevacuum cycle at 121° C. with a vacuum level of 0.075–0.085 bar and a steam pulse to 1.00 bar for each pulse. Indicators were exposed in the sterilizer for between 7 and 13 minutes. This cycle is depicted in the time-pressure diagram in FIG. 5. After exposure the inner containers containing the enzyme substrate and nutrient medium were crushed and the indicators were incubated at 60° C. The indicators were examined for fluorescence using a 3M™ ATTEST™ Model 190 Rapid Autoreader, commercially available from 3M Company, St. Paul, Minn. Additionally, spore growth, as indicated by a color change from purple to yellow, was determined visually after 168 hours of incubation at 60° C. […]

Substance	accuracy of sterilization indicators compared to indicators made with untreated spores
Decaglyceryl Monomyristate	improved
Decaglyceryl Monooleate	improved
Hexaglyceryl Distearate	improved
Hexaglyceryl Monolaurate	improved

Same assay, conditions: Example 1; 5 mg/ml coating; 4-pulse prevacuum steam 121° C., 7–13 min

Substance	FLUORESCENCE - PERCENT POSITIVE 1 HR	FLUORESCENCE - PERCENT POSITIVE 2 HR	FLUORESCENCE - PERCENT POSITIVE 3 HR	FLUORESCENCE - PERCENT POSITIVE 4 HR	FLUORESCENCE - PERCENT POSITIVE 5 HR	FLUORESCENCE - PERCENT POSITIVE 6 HR
Hexaglyceryl Monostearate	0%	32.0%	78.0%	84.0%	90.0%	94.0%
Tetraglyceryl Monostearate	0%	43.2%	67.6%	83.8%	94.6%	97.3%

Same assay, conditions: Example 1; 10 mg/ml coating; 4-pulse prevacuum steam 121° C., 7–13 min

Substance	FLUORESCENCE - PERCENT POSITIVE 1 HR	FLUORESCENCE - PERCENT POSITIVE 2 HR	FLUORESCENCE - PERCENT POSITIVE 3 HR	FLUORESCENCE - PERCENT POSITIVE 4 HR	FLUORESCENCE - PERCENT POSITIVE 5 HR	FLUORESCENCE - PERCENT POSITIVE 6 HR
Hexaglyceryl Monostearate	0%	31.8%	63.6%	79.5%	84.1%	86.4%
Tetraglyceryl Monostearate	0%	63.0%	81.5%	94.4%	96.3%	98.1%

Same assay, conditions: Example 1; 20 mg/ml coating; 4-pulse prevacuum steam 121° C., 7–13 min

Substance	FLUORESCENCE - PERCENT POSITIVE 1 HR	FLUORESCENCE - PERCENT POSITIVE 2 HR	FLUORESCENCE - PERCENT POSITIVE 3 HR	FLUORESCENCE - PERCENT POSITIVE 4 HR	FLUORESCENCE - PERCENT POSITIVE 5 HR	FLUORESCENCE - PERCENT POSITIVE 6 HR
Glycereth-7-diisononanoate	0%	0%	66.7%	83.3%	83.3%	83.3%
Hexaglyceryl Monostearate	0%	61.4%	86.4%	95.5%	97.7%	97.7%
Tetraglyceryl Monostearate	0%	74.3%	92.9%	100.0%	100.0%	100.0%

Same assay, conditions: Example 1; 40 mg/ml coating; 4-pulse prevacuum steam 121° C., 7–13 min

Substance	FLUORESCENCE - PERCENT POSITIVE 1 HR	FLUORESCENCE - PERCENT POSITIVE 2 HR	FLUORESCENCE - PERCENT POSITIVE 3 HR	FLUORESCENCE - PERCENT POSITIVE 4 HR	FLUORESCENCE - PERCENT POSITIVE 5 HR	FLUORESCENCE - PERCENT POSITIVE 6 HR
Glycereth-7-diisononanoate	0%	64.7%	88.2%	88.2%	94.1%	100.0%
Tetraglyceryl Monostearate	0%	94.7%	100.0%	100.0%	100.0%	100.0%

Same assay, conditions: Example 4; 25 mg/ml coating; 4-pulse prevacuum steam 121° C., 7–18 min

Substance	FLUORESCENCE - PERCENT POSITIVE 1 HR	FLUORESCENCE - PERCENT POSITIVE 2 HR	FLUORESCENCE - PERCENT POSITIVE 3 HR	FLUORESCENCE - PERCENT POSITIVE 4 HR
Hexaglyceryl Distearate	27.6%	51.7%	58.6%	62.1%

Same assay, conditions: Example 4; 50 mg/ml coating; 4-pulse prevacuum steam 121° C., 7–18 min

Substance	FLUORESCENCE - PERCENT POSITIVE 1 HR	FLUORESCENCE - PERCENT POSITIVE 2 HR	FLUORESCENCE - PERCENT POSITIVE 3 HR	FLUORESCENCE - PERCENT POSITIVE 4 HR
Decaglyceryl Monooleate	0%	0%	0%	0%
Hexaglyceryl Distearate	30.3%	57.6%	97%	100%
Hexaglyceryl Monolaurate	0%	28.6%	57.1%	71.4%

Same assay, conditions: Example 4; 100 mg/ml coating; 4-pulse prevacuum steam 121° C., 7–18 min

Substance	FLUORESCENCE - PERCENT POSITIVE 1 HR	FLUORESCENCE - PERCENT POSITIVE 2 HR	FLUORESCENCE - PERCENT POSITIVE 3 HR	FLUORESCENCE - PERCENT POSITIVE 4 HR
Decaglyceryl Monooleate	7.7%	23.1%	50%	73.1%
Hexaglyceryl Distearate	71.4%	100%	100%	100%
Hexaglyceryl Monolaurate	90.0%	100.0%	100.0%	100.0%

Same assay, conditions: Example 5; 50 mg/ml coating; 4-pulse prevacuum steam 121° C., 7–13 min

Substance	FLUORESCENCE - PERCENT POSITIVE 1 HR	FLUORESCENCE - PERCENT POSITIVE 2 HR	FLUORESCENCE - PERCENT POSITIVE 3 HR	FLUORESCENCE - PERCENT POSITIVE 4 HR
Decaglyceryl Monomyristate	0%	33.3%	33.3%	33.3%
Decaglyceryl Monooleate	0%	0%	0%	0%
POE(5) Glyceryl Monooleate	0%	0%	0%	0%
POE(10) Phytosterol	0%	0%	0%	0%
POE(15) Glyceryl Monooleate	0%	0%	0%	0%
POE(15) Glyceryl Monostearate	0%	0%	42.9%	57.1%
POE(60) Sorbitol Tetraoleate	0%	0%	0%	0%
POE(60) Sorbitol Tetrastearate	0%	0%	0%	0%

Same assay, conditions: Example 5; 100 mg/ml coating; 4-pulse prevacuum steam 121° C., 7–13 min

Substance	FLUORESCENCE - PERCENT POSITIVE 1 HR	FLUORESCENCE - PERCENT POSITIVE 2 HR	FLUORESCENCE - PERCENT POSITIVE 3 HR	FLUORESCENCE - PERCENT POSITIVE 4 HR
Decaglyceryl Monomyristate	0%	100%	100%	100%
Decaglyceryl Monooleate	0%	50%	100%	100%
POE(5) Glyceryl Monooleate	0%	0%	0%	0%
POE(15) Glyceryl Monostearate	0%	0%	0%	0%
POE(60) Sorbitol Tetraoleate	0%	0%	0%	0%

Test system: Bacillus stearothermophilus spores
Experiment: Spore outgrowth (color change) of indicators after prevacuum steam sterilization
Format: cell-based
Conditions: Example 1; 5 mg/ml coating; 4-pulse prevacuum steam 121° C., 7–13 min
Procedure: as §1, §2, §3, §4, §5

Substance	NO. GROWTH POSITIVE 168 HR
Hexaglyceryl Monostearate	50
Tetraglyceryl Monostearate	37

Same assay, conditions: Example 1; 10 mg/ml coating; 4-pulse prevacuum steam 121° C., 7–13 min

Substance	NO. GROWTH POSITIVE 168 HR
Hexaglyceryl Monostearate	44
Tetraglyceryl Monostearate	54

Same assay, conditions: Example 1; 20 mg/ml coating; 4-pulse prevacuum steam 121° C., 7–13 min

Substance	NO. GROWTH POSITIVE 168 HR
Glycereth-7-diisononanoate	6
Hexaglyceryl Monostearate	44
Tetraglyceryl Monostearate	70

Same assay, conditions: Example 1; 40 mg/ml coating; 4-pulse prevacuum steam 121° C., 7–13 min

Substance	NO. GROWTH POSITIVE 168 HR
Glycereth-7-diisononanoate	17
Tetraglyceryl Monostearate	19

Same assay, conditions: Example 4; 25 mg/ml coating; 4-pulse prevacuum steam 121° C., 7–18 min

Substance	NO. GROWTH POSITIVE 168 HR
Hexaglyceryl Distearate	29

Same assay, conditions: Example 4; 50 mg/ml coating; 4-pulse prevacuum steam 121° C., 7–18 min

Substance	NO. GROWTH POSITIVE 168 HR
Decaglyceryl Monooleate	10
Hexaglyceryl Distearate	33
Hexaglyceryl Monolaurate	7

Same assay, conditions: Example 4; 100 mg/ml coating; 4-pulse prevacuum steam 121° C., 7–18 min

Substance	NO. GROWTH POSITIVE 168 HR
Decaglyceryl Monooleate	26
Hexaglyceryl Distearate	21
Hexaglyceryl Monolaurate	20

Same assay, conditions: Example 5; 50 mg/ml coating; 4-pulse prevacuum steam 121° C., 7–13 min

Substance	NO. GROWTH POSITIVE 168 HR
Decaglyceryl Monomyristate	3
Decaglyceryl Monooleate	6
POE(5) Glyceryl Monooleate	2
POE(10) Phytosterol	2
POE(15) Glyceryl Monooleate	1
POE(15) Glyceryl Monostearate	7
POE(60) Sorbitol Tetraoleate	2
POE(60) Sorbitol Tetrastearate	5

Same assay, conditions: Example 5; 100 mg/ml coating; 4-pulse prevacuum steam 121° C., 7–13 min

Substance	NO. GROWTH POSITIVE 168 HR
Decaglyceryl Monomyristate	2
Decaglyceryl Monooleate	2
POE(5) Glyceryl Monooleate	2
POE(15) Glyceryl Monostearate	4
POE(60) Sorbitol Tetraoleate	2
